Molecular target: mouse TRPM3α2 (mTRPM3) ion channel (Mus musculus (Mouse), UniProt J9SQF3)
Assay: TRPM3 ion channel driven Ca2+ uptake, Fluo-4 AM assay, mTRPM3alpha2 overexpressing flip-in HEK293 cells stimulated with pregnenolone sulfate
Type: cell-based
Conditions: PS (50 μM) stimulated, cpd 001-199
Procedure, shortened: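 Flip-in HEK293 cells loaded with Fluo-4 AM were added to plates holding compound plus 50 μM pregnenolone sulfate in Ca2+-containing Krebs buffer. Fluorescence (ex 485/em 535 nm) read directly after cell addition; % inhibition relative to PS-stimulated vehicle and positive-control inhibitor.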

Sequence of mouse TRPM3α2 (mTRPM3) ion channel (J9SQF3 other isoform, or with tags, fused parts or gaps): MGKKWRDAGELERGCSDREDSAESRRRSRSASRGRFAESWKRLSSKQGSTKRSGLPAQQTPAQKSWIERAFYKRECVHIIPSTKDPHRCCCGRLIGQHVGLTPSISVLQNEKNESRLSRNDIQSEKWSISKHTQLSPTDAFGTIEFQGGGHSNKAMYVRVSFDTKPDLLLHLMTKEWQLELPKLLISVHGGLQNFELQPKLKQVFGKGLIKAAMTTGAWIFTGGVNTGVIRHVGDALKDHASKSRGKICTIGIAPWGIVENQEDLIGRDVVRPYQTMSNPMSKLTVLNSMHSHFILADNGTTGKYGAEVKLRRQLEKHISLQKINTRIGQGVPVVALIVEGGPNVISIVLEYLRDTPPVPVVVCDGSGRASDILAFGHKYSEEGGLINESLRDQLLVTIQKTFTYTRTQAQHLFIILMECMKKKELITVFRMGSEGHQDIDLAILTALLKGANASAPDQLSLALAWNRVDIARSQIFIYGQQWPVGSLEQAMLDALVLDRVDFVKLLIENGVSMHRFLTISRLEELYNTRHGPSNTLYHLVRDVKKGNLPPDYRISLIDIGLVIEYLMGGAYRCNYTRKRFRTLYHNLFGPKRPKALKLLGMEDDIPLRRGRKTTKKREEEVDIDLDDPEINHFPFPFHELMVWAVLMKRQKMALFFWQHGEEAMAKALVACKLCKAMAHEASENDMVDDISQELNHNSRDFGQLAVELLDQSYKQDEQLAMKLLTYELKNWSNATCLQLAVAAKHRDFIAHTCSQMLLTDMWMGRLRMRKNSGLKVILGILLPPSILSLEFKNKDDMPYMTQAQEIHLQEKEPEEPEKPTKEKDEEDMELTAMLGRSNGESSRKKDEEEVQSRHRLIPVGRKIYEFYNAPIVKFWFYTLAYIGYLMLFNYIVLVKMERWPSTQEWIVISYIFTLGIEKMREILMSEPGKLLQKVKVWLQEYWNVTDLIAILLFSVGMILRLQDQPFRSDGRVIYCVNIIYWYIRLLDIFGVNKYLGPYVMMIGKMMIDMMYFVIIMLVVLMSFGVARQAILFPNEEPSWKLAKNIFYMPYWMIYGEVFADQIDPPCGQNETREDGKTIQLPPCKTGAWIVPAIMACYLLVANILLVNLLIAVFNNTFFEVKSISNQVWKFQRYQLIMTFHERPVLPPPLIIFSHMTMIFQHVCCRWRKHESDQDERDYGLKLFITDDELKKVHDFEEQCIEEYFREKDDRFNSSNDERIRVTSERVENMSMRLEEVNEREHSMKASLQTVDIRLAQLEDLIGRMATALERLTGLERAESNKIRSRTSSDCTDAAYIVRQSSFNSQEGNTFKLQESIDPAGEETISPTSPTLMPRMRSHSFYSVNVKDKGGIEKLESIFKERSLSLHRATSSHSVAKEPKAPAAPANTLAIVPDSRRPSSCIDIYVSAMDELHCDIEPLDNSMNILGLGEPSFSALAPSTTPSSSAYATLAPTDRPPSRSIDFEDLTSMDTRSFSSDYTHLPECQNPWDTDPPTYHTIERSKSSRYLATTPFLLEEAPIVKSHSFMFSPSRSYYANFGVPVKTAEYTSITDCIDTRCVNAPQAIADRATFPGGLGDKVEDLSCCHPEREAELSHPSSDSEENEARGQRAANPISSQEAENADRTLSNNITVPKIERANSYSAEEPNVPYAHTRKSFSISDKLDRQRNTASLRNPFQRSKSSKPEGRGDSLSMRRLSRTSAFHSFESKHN

| IC50 [nM] | Compound |
| --- | --- |
| > 20000 | Cc1oc2ccc(OCC3CCOCC3)cc2c1C(=O)O [compound 015, 2-methyl-5-((tetrahydro-2H-pyran-4-yl)methoxy)benzofuran-3-carboxylic acid] |
| > 20000 | Cc1noc(C)c1COc1ccc2oc(C)c(C(=O)O)c2c1 [compound 016, 5-((3,5-dimethylisoxazol-4-yl)methoxy)-2-methylbenzofuran-3-carboxylic acid] |
| > 20000 | Cc1oc2ccc(OCc3nc4ccccc4s3)cc2c1C(=O)O [compound 017, 5-(benzo[d]thiazol-2-ylmethoxy)-2-methylbenzofuran-3-carboxylic acid] |
| < 1000 | Cc1oc2ccc(OCc3cccnc3)cc2c1C(=O)N[C@H]1CCNC1 [compound 022, (S)-2-methyl-5-(pyridin-3-ylmethoxy)-N-(pyrrolidin-3-yl)benzofuran-3-carboxamide] |
| < 1000 | Cc1oc2ccc(OCc3cncs3)cc2c1C(=O)N[C@H]1CCNC1 [compound 024, (S)-2-methyl-N-(pyrrolidin-3-yl)-5-(thiazol-5-ylmethoxy)benzofuran-3-carboxamide] |
| < 1000 | Cc1oc2ccc(OCc3nccs3)cc2c1C(=O)N[C@H]1CCNC1 [compound 025, (S)-2-methyl-N-(pyrrolidin-3-yl)-5-(thiazol-2-ylmethoxy)benzofuran-3-carboxamide] |
| < 1000 | Cc1oc2ccc(OCc3ccccn3)cc2c1C(=O)NC1CCNC1=O (centres unmarked) [compound 026, 2-methyl-N-(2-oxopyrrolidin-3-yl)-5-(pyridin-2-ylmethoxy)benzofuran-3-carboxamide] |
| < 1000 | Cc1oc2ccc(OCc3cccnc3)cc2c1C(=O)NC1CCNC1=O (centres unmarked) [compound 027, 2-methyl-N-(2-oxopyrrolidin-3-yl)-5-(pyridin-3-ylmethoxy)benzofuran-3-carboxamide] |
| < 1000 | Cc1cncc(COc2ccc3oc(C)c(C(=O)N[C@H]4CCNC4)c3c2)c1 [compound 028, (S)-2-methyl-5-((5-methylpyridin-3-yl)methoxy)-N-(pyrrolidin-3-yl)benzofuran-3-carboxamide] |
| < 1000 | Cc1cccc(COc2ccc3oc(C)c(C(=O)N[C@H]4CCNC4)c3c2)n1 [compound 029, (S)-2-methyl-5-((6-methylpyridin-2-yl)methoxy)-N-(pyrrolidin-3-yl)benzofuran-3-carboxamide] |
| > 20000 | Cc1ccc(COc2ccc3oc(C)c(C(=O)NC4CCOC4)c3c2)cn1 (centres unmarked) [compound 033, 2-methyl-5-((6-methylpyridin-3-yl)methoxy)-N-(tetrahydrofuran-3-yl)benzofuran-3-carboxamide] |
| < 1000 | Cc1oc2ccc(OCc3ccsc3)cc2c1C(=O)NC1CCNC1=O (centres unmarked) [compound 035, 2-methyl-N-(2-oxopyrrolidin-3-yl) -5-(thiophen-3-ylmethoxy)benzofuran-3-carboxamide] |
| < 1000 | Cc1cncc(COc2ccc3oc(C)c(C(=O)NC4CCNC4=O)c3c2)c1 (centres unmarked) [compound 038, 2-methyl-5-((5-methylpyridin-3-yl)methoxy)-N-(2-oxopyrrolidin-3-yl)benzofuran-3-carboxamide] |
| > 20000 | COc1ccncc1COc1ccc2oc(C)c(C(=O)NC3CCOC3)c2c1 (centres unmarked) [compound 040, 5-((4-methoxypyridin-3-yl)methoxy)-2-methyl-N-(tetrahydrofuran-3-yl)benzofuran-3-carboxamide] |
| < 1000 | Cc1oc2ccc(OCc3cccs3)cc2c1C(=O)NC1CCN(C)CC1 [compound 041, 2-methyl-N-(1-methylpiperidin-4-yl)-5-(thiophen-2-ylmethoxy)benzofuran-3-carboxamide] |
| < 1000 | Cc1ncsc1COc1ccc2oc(C)c(C(=O)NC3CCNC3=O)c2c1 (centres unmarked) [compound 042, 2-methyl-5-((4-methylthiazol-5-yl)methoxy)-N-(2-oxopyrrolidin-3-yl)benzofuran-3-carboxamide] |
| < 1000 | Cc1csc(COc2ccc3oc(C)c(C(=O)NC4CCNC4=O)c3c2)n1 (centres unmarked) [compound 043, 2-methyl-5-((4-methylthiazol-2-yl)methoxy)-N-(2-oxopyrrolidin-3-yl)benzofuran-3-carboxamide] |
| < 1000 | Cc1oc2ccc(OCc3ccccn3)cc2c1C(=O)NC1(CO)CCOCC1 [compound 047, N-(4-(hydroxymethyl)tetrahydro-2H-pyran-4-yl)-2-methyl-5-(pyridin-2-ylmethoxy)benzofuran-3-carboxamide] |
| < 1000 | Cc1oc2ccc(OCc3ccccn3)cc2c1C(=O)NC1CCNCC1(F)F (centres unmarked) [compound 048, N-(3,3-difluoropiperidin-4-yl)-2-methyl-5-(pyridin-2-ylmethoxy)benzofuran-3-carboxamide] |
| < 1000 | Cc1oc2ccc(OCc3nccs3)cc2c1C(=O)NC1(CO)CCOCC1 [compound 049, N-(4-(hydroxymethyl)tetrahydro-2H-pyran-4-yl)-2-methyl-5-(thiazol-2-ylmethoxy)benzofuran-3-carboxamide] |
| < 1000 | COc1ncccc1COc1ccc2oc(C)c(C(=O)NC3CCN(C)CC3)c2c1 [compound 051, 5-((2-methoxypyridin-3-yl)methoxy)-2-methyl-N-(1-methylpiperidin-4-yl)benzofuran-3-carboxamide] |
| < 1000 | Cc1ncsc1COc1ccc2oc(C)c(C(=O)NC3(CO)CCOCC3)c2c1 [compound 054, N-(4-(hydroxymethyl)tetrahydro-2H-pyran-4-yl)-2-methyl-5-((4-methylthiazol-5-yl)methoxy)-benzofuran-3-carboxamide] |
| < 1000 | Cc1ncsc1COc1ccc2oc(C)c(C(=O)NC3CCNCC3(F)F)c2c1 (centres unmarked) [compound 056, N-(3,3-difluoropiperidin-4-yl)-2-methyl-5-((4-methylthiazol-5-yl)methoxy)benzofuran-3-carboxamide] |
| > 20000 | Cc1oc2ccc(OCc3nc(C(F)(F)F)cs3)cc2c1C(=O)NC1CCOC1 (centres unmarked) [compound 057, 2-methyl-N-(tetrahydrofuran-3-yl)-5-((4-(trifluoromethyl)thiazol-2-yl)methoxy)benzofuran-3-carboxamide] |
| < 1000 | COc1ncccc1COc1ccc2oc(C)c(C(=O)NC3(CO)CCOCC3)c2c1 [compound 058, N-(4-(hydroxymethyl)tetrahydro-2H-pyran-4-yl)-5-((2-methoxypyridin-3-yl)methoxy)-2-methyl-benzofuran-3-carboxamide] |
| > 20000 | Cc1oc2ccc(OCc3ccc4cnccc4c3)cc2c1C(=O)NC1CCN(C)CC1 [compound 061, 5-(isoquinolin-6-ylmethoxy)-2-methyl-N-(1-methylpiperidin-4-yl)benzofuran-3-carboxamide] |
| < 1000 | Cc1oc2ccc(OCc3cccnc3C(F)(F)F)cc2c1C(=O)NC1CCNC1=O (centres unmarked) [compound 064, 2-methyl-N-(2-oxopyrrolidin-3-yl)-5-((2-(trifluoromethyl)pyridin-3-yl)methoxy)benzofuran-3-carboxamide] |
| < 1000 | Cc1oc2ccc(OCc3cccnc3Cl)cc2c1C(=O)NC1CCNCC1(F)F (centres unmarked) [compound 067, 5-((2-chloropyridin-3-yl)methoxy)-N-(3,3-difluoropiperidin-4-yl)-2-methylbenzofuran-3-carboxamide] |

| Compound | IC50 [nM] |
| --- | --- |
| Cc1oc2ccc(OCC3CCN(C(=O)OC(C)(C)C)C3)cc2c1C(=O)O (centres unmarked) [compound 019, 5-((1-(tert-butoxycarbonyl)pyrrolidin-3-yl)methoxy)-2-methylbenzofuran-3-carboxylic acid] | > 20000 |

Reference: patent US12209081B2 (Katholieke Universiteit Leuven, priority 2020, dated 2025)
